{"source": "paper PMC9827040", "about": "(Blood Advances, 2022)", "key": {"[1]": {"target": "CRBN (Homo sapiens, UniProt Q96SW2)", "sequence (Q96SW2 whole entry)": "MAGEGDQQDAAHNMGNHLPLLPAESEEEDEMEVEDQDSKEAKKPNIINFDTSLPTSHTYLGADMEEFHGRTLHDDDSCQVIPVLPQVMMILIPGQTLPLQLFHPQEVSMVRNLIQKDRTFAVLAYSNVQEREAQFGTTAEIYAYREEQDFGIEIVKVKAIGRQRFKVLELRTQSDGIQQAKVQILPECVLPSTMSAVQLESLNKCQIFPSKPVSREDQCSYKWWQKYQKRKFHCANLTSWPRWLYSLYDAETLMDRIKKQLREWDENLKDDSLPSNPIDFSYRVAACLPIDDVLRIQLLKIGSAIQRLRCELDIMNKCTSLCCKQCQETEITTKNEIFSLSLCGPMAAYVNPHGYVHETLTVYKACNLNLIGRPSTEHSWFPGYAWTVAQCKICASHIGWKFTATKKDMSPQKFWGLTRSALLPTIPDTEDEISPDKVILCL", "experiment": "CRBN-target-binding assay", "settings": "HTRF"}, "[2]": {"tested_on": "CCL3 and CCL4 secretion by TMD-8 cells", "experiment": "CCL3 & CCL4 ELISA in anti-IgM stimulated TMD-8 cells", "type": "cell-based, human", "settings": "10 nM for 24 hours, 10 μg/mL anti-IgM 8 hours"}, "[3]": {"tested_on": "WT and mutant BTK (E41K, T474I, C481S, C481R, C481T, C481Y, C481F, L528W)", "experiment": "WT or mutant BTK transiently expressed in HEK293 cells, immunoblotting", "type": "cell-based", "settings": "HEK293, 0.1, 1 and 10 μM, 24 hours"}, "[4]": {"tested_on": "TMD-8 BTK C481S cells", "experiment": "Cell proliferation, C481S BTK-overexpressing TMD-8 cells", "type": "cell-based, human"}, "[5]": {"tested_on": "CRBN neosubstrates (Ikaros, Helios, Aiolos, GSPT1, CK1-a)", "experiment": "Immunoblotting of CRBN neosubstrates in hematological cell lines", "type": "cell-based", "settings": "100 nM, 24 or 72 hours"}}}
{"compound": "O=C(c1ccc(Oc2ccccc2)cc1Cl)c1c[nH]c2ncnc(N[C@@H]3CC[C@@H](CO)OC3)c12", "note": "[ARQ-531]", "values": [{"measurement": "binding to CRBN", "setting": "[1]", "result": "did not bind to CRBN"}, {"measurement": "CCL3 or CCL4 secretion", "setting": "[2]", "result": "little or no effect"}, {"measurement": "BTK phosphorylation in C481S and E41K BTK mutants", "setting": "[3]", "result": "substantially attenuated"}]}
{"compound": "Nc1ncnc2c1c(-c1ccc(Oc3ccccc3)cc1)nn2C1CCN(CCOCCOCC(=O)Nc2ccc3c(c2)C(=O)N(C2CCC(=O)NC2=O)C3=O)CC1", "note": "(centres unmarked) [MT-802]", "values": [{"measurement": "CCL3 or CCL4 secretion", "setting": "[2]", "result": "little or no effect"}, {"measurement": "degradation of WT and mutant BTK", "setting": "[3]", "result": "can also degrade E41K, C481R, C481Y, C481T, and C481F BTK mutants"}]}
{"compound": "CC#CC(=O)N1CCC[C@H]1c1nc(-c2ccc(C(=O)Nc3ccccn3)cc2)c2c(N)nccn12", "note": "[acalabrutinib]", "values": [{"measurement": "CCL3 or CCL4 secretion", "setting": "[2]", "result": "significantly abrogated CCL3 or CCL4 secretion"}]}
{"compound": "C=CC(=O)N1CCC[C@@H](n2nc(-c3ccc(Oc4ccccc4)cc3)c3c(N)ncnc32)C1", "note": "[ibrutinib]", "values": [{"measurement": "binding to CRBN", "setting": "[1]", "result": "did not bind to CRBN"}, {"measurement": "inhibition of proliferation of C481S BTK-overexpressing TMD-8 cells", "setting": "[4]", "result": "resistance"}, {"measurement": "CCL3 or CCL4 secretion", "setting": "[2]", "result": "significantly abrogated CCL3 or CCL4 secretion"}]}
{"compound": "O=C1CCC(N2C(=O)c3ccccc3C2=O)C(=O)N1", "note": "(centres unmarked) [thalidomide]", "values": [{"measurement": "change in neosubstrates of U2932 and WSU-WM", "setting": "[5]", "result": "No significant change"}, {"measurement": "degradation of CRBN neosubstrates in any of the tested cell lines", "setting": "[5]", "result": "did not lead to any significant degradation"}]}
